Test results published in patent publication US20250152574A1 (BIOGEN MA INC., priority 2022, published 2025).

Target: T1, EBP (Homo sapiens, UniProt Q15125)
T1 construct: HEK293T cells were utilized as the source of EBP enzyme; endogenous in cells; host or cells: HEK293T
Assay: EBP Functional Assay (EBP immunoaffinity LC-MS assay)
Type: biochemical
Details: HEK293T cells as source of EBP enzyme; substrate zymosterol-d5, 37° C. for 4 h; percent conversion to dehydrolathosterol-d5 by LC-APCI MRM MS
Experimental: The EBP immunoaffinity (IA) LC-MS assay measures the potency of small molecule inhibitors of EBP by quantifying their concentration-dependent changes in the enzyme's substrate and product using liquid chromatography atmospheric pressure chemical ionization multiple reaction monitoring mass spectrometry (LC-APCI MRM MS). HEK293T cells were utilized as the source of EBP enzyme. The enzyme was incubated with the small molecule inhibitors at variable concentrations for 30 min. Deuterated form of EBP substrate, zymosterol-d5 (Avanti Polar Lipids, Cat #700068P-1 mg), was then added and the plate was incubated at 37° C. for 4 h. Finally, the sterol isomers were extracted and injected to LC-APCI MRM MS. MRM transition used for the quantification for both zymosterol and […] (substrate and product of EBP enzymatic reaction, respectively) is 372.3-203.2, CE 30 and DP 80 in positive ion mode. Percent conversion of the zymosterol-d5 to dehydrolathosterol-d5 was used to derive IC50 curves. Tasin-1 (1′-[(4-Methoxyphenyl)sulfonyl]-4-methyl-1,4′-bipiperidine, CAS 792927-06-1) was used as the reference small molecule inhibitor.
Percent conversion versus the compound concentration data were fit to the following 4-parameter logistic model to generate IC50 curves: […]

T1 sequence (Q15125 whole entry): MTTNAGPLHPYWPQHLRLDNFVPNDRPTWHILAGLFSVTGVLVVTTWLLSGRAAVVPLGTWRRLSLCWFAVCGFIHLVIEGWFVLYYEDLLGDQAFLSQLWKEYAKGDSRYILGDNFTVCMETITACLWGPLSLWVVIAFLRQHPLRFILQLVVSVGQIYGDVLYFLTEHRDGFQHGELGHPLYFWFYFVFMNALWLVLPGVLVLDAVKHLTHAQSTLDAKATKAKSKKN

Compound	IC50 [nM]
CC1(O)CCN([C@@H]2COC3(CCN(S(=O)(=O)c4cc(C#N)ccc4F)CC3)C2)CC1 (single isomer, unassigned) [Example 141]	250 to 1500
O=S(=O)(c1ccc(OC2CC2)cc1)N1CCC2(CCC(N3CC4(COC4)C3)C2)CC1 (centres unmarked) [Example 134, 6-(8-((4-cyclopropoxyphenyl)sulfonyl)-8-azaspiro[4.5]decan-2-yl)-2-oxa-6-azaspiro[3.3]heptane]	250 to 1500
N#Cc1ccc(F)c(S(=O)(=O)N2CCC3(CC2)CC(N2CC4(COC4)C2)CO3)c1 (centres unmarked) [Example 46, 3-((3-(2-Oxa-6-azaspiro[3.3]heptan-6-yl)-1-oxa-8-azaspiro[4.5]decan-8-yl)sulfonyl)-4-fluorobenzonitrile]	250 to 1500
O=S(=O)(c1cc(F)ccc1F)N1CCC2(CC1)CC(N1CCOCC1)CO2 (centres unmarked) [Example 19, 8-((2,5-Difluorophenyl)sulfonyl)-3-morpholino-1-oxa-8-azaspiro[4.5]decane]	250 to 1500
COCCNC1COC2(CCN(S(=O)(=O)c3cc(C4CC4)nn3C)CC2)C1 (centres unmarked) [Example 59, 8-((3-Cyclopropyl-1-methyl-1H-pyrazol-5-yl)sulfonyl)-N-(2-methoxyethyl)-1-oxa-8-azaspiro[4.5]decan-3-amine]	250 to 1500
COC1CN(C2COC3(CCN(S(=O)(=O)c4cc(C5CC5)nn4C)CC3)C2)C1 (centres unmarked) [Example 58, 8-((3-Cyclopropyl-1-methyl-1H-pyrazol-5-yl)sulfonyl)-3-(3-methoxyazetidin-1-yl)-1-oxa-8-azaspiro[4.5]decane]	250 to 1500
COCCN(C)C1COC2(CCN(S(=O)(=O)c3cc(C4CC4)nn3C)CC2)C1 (centres unmarked) [Example 60, 8-((3-Cyclopropyl-1-methyl-1H-pyrazol-5-yl)sulfonyl)-N-(2-methoxyethyl)-N-methyl-1-oxa-8-azaspiro[4.5]decan-3-amine]	250 to 1500
N#Cc1cc(S(=O)(=O)N2CCC3(CCC(N4CC5(COC5)C4)C3)CC2)ccc1F (centres unmarked) [Example 127, 5-((2-(2-oxa-6-azaspiro[3.3]heptan-6-yl)-8-azaspiro[4.5]decan-8-yl)sulfonyl)-2-fluorobenzonitrile]	250 to 1500
N#Cc1ccc(F)c(S(=O)(=O)N2CCC3(CC2)CC(N2C[C@H]4C[C@@H]2CO4)CO3)c1 (stereo partly drawn) [Example 45, 3-((3-((1R,4R)-2-oxa-5-azabicyclo[2.2.1]heptan-5-yl)-1-oxa-8-azaspiro[4.5]decan-8-yl)sulfonyl)-4-fluorobenzonitrile]	250 to 1500
N#Cc1cc(F)cc(S(=O)(=O)N2CCC3(CCC(N4C[C@H]5C[C@@H]4CO5)C3)CC2)c1 (stereo partly drawn) [Example 97, 3-((2-((1R,4R)-2-oxa-5-azabicyclo[2.2.1]heptan-5-yl)-8-azaspiro[4.5]decan-8-yl)sulfonyl)-5-fluorobenzonitrile]	100 to 250
O=S(=O)(c1cc2cccnc2cc1F)N1CCC2(CCC(N3CCOCC3)C2)CC1 (centres unmarked) [Example 31, 4-(8-((7-fluoroquinolin-6-yl)sulfonyl)-8-azaspiro[4.5]decan-2-yl)morpholine]	100 to 250
N#Cc1ccc(S(=O)(=O)N2CCC3(CC2)CC(N2CC4(COC4)C2)CO3)c(Cl)c1 (centres unmarked) [Example 9]	250 to 1500
O=S(=O)(c1ccc(OC(F)F)cc1)N1CCC2(CC1)CC(N1CCCCC1)CO2 (centres unmarked) [Example 14, 8-((4-(Difluoromethoxy)phenyl)sulfonyl)-3-(piperidin-1-yl)-1-oxa-8-azaspiro[4.5]decane]	250 to 1500
Cc1cc(S(=O)(=O)N2CCC3(CCC(N4C[C@@H]5C[C@H]4CO5)C3)CC2)n(C)n1 (stereo partly drawn) [Example 87, (1S,4S)-5-(8-((1,3-dimethyl-1H-pyrazol-5-yl)sulfonyl)-8-azaspiro[4.5]decan-2-yl)-2-oxa-5-azabicyclo[2.2.1]heptane]	250 to 1500
O=S(=O)(c1ccc(OC(F)F)cc1)N1CCC2(CCC(N3C[C@@H]4C[C@H]3CO4)C2)CC1 (stereo partly drawn) [Example 89, (1S,4S)-5-(8-((4-(difluoromethoxy)phenyl)sulfonyl)-8-azaspiro[4.5]decan-2-yl)-2-oxa-5-azabicyclo[2.2.1]heptane]	100 to 250
Cc1nc(C(F)(F)F)ccc1S(=O)(=O)N1CCC2(CC1)CC(NC1CCOCC1)CO2 (centres unmarked) [Example 138, 8-((2-methyl-6-(trifluoromethyl)pyridin-3-yl)sulfonyl)-N-(tetrahydro-2H-pyran-4-yl)-1-oxa-8-azaspiro[4.5]decan-3-amine]	250 to 1500
N#Cc1cc(F)cc(S(=O)(=O)N2CCC3(CC2)CC(N2CC4(COC4)C2)C3)c1 [Example 96, 3-((2-(2-oxa-6-azaspiro[3.3]heptan-6-yl)-7-azaspiro[3.5]nonan-7-yl)sulfonyl)-5-fluorobenzonitrile]	250 to 1500
N#Cc1cc(F)cc(S(=O)(=O)N2CCC3(CC2)CC(NCC2CCOCC2)CO3)c1 (centres unmarked) [Example 98, 3-fluoro-5-((3-(((tetrahydro-2H-pyran-4-yl)methyl)amino)-1-oxa-8-azaspiro[4.5]decan-8-yl)sulfonyl)benzonitrile]	250 to 1500

More lines, now with the values ahead:

IC50 [nM]	Compound
100 to 250	N#Cc1cccc(S(=O)(=O)N2CCC3(CCC(N4CC5(COC5)C4)C3)CC2)c1 (centres unmarked) [Example 11]
100 to 250	Cc1ccc(S(=O)(=O)N2CCC3(CC2)C[C@H](N2CC(O)C2)CO3)c(Cl)c1 (single isomer, unassigned) [Example 53b]
< 100	COc1cc(S(=O)(=O)N2CCC3(CCC(N4CCOCC4)C3)CC2)n(C)n1 (centres unmarked) [Example 26, 4-(8-((3-Methoxy-1-methyl-1H-pyrazol-5-yl)sulfonyl)-8-azaspiro[4.5]decan-2-yl)morpholine]
100 to 250	Cc1cnc(S(=O)(=O)N2CCC3(CCC(N4CCOCC4)C3)CC2)c(C)c1 (centres unmarked) [Example 25, 4-(8-((3,5-Dimethylpyridin-2-yl)sulfonyl)-8-azaspiro[4.5]decan-2-yl)morpholine]
< 100	O=S(=O)(c1ccc(OC(F)F)cc1)N1CCC2(CC[C@H](N3C[C@@H]4C[C@H]3CO4)C2)CC1 (single isomer, unassigned) [Example 90b]
< 100	Cn1nc(C(F)F)cc1S(=O)(=O)N1CCC2(CCC(N3CC4(COC4)C3)C2)CC1 (centres unmarked) [Example 125, 6-(8-((3-(difluoromethyl)-1-methyl-1H-pyrazol-5-yl)sulfonyl)-8-azaspiro[4.5]decan-2-yl)-2-oxa-6-azaspiro[3.3]heptane]
< 100	COc1ncc(C)cc1S(=O)(=O)N1CCC2(CCC(NC3(C)CCOC3)C2)CC1 (centres unmarked) [Example 42]
100 to 250	O=S(=O)(c1cccc2ccnn12)N1CCC2(CCC(N3CC4(COC4)C3)C2)CC1 (centres unmarked) [Example 131, 6-(8-(pyrazolo[1,5-a]pyridin-7-ylsulfonyl)-8-azaspiro[4.5]decan-2-yl)-2-oxa-6-azaspiro[3.3]heptane]
< 100	O=S(=O)(c1ccc(OC(F)F)cc1)N1CCC2(CC[C@H](N3C[C@H]4C[C@@H]3CO4)C2)CC1 (single isomer, unassigned) [Example 86b]
100 to 250	Cc1cc(S(=O)(=O)N2CCC3(CC[C@@H](N4CC5(COC5)C4)C3)CC2)n(C)n1 (single isomer, unassigned) [Example 68a]
< 100	Cc1ccc(S(=O)(=O)N2CCC3(CC2)CC(NC2CCOCC2)CO3)c(Cl)c1 (centres unmarked) [Example 51, 8-((2-Chloro-4-methylphenyl)sulfonyl)-N-(tetrahydro-2H-pyran-4-yl)-1-oxa-8-azaspiro[4.5]decan-3-amine]
100 to 250	N#Cc1ccc(F)c(S(=O)(=O)N2CCC3(CC2)CC(NC2CCC(F)(F)CC2)CO3)c1 (centres unmarked) [Example 48, 3-((3-((4,4-Difluorocyclohexyl)amino)-1-oxa-8-azaspiro[4.5]decan-8-yl)sulfonyl)-4-fluorobenzonitrile]
100 to 250	O=S(=O)(c1ccc2ncc(F)cc2c1)N1CCC2(CCC(N3CC4(COC4)C3)C2)CC1 (centres unmarked) [Example 133, 6-(8-((3-fluoroquinolin-6-yl)sulfonyl)-8-azaspiro[4.5]decan-2-yl)-2-oxa-6-azaspiro[3.3]heptane]
100 to 250	Cc1cc(S(=O)(=O)N2CCC3(CC[C@H](N4CCOCC4)C3)CC2)n(C)n1 (single isomer, unassigned) [Example 22b]
< 100	Cn1nc(C2CC2)cc1S(=O)(=O)N1CCC2(CC1)CC(NC1CCOCC1)C2 [Example 120, 7-((3-cyclopropyl-1-methyl-1H-pyrazol-5-yl)sulfonyl)-N-(tetrahydro-2H-pyran-4-yl)-7-azaspiro[3.5]nonan-2-amine]
< 100	COc1cc(S(=O)(=O)N2CCC3(CCC(N4CC5(COC5)C4)C3)CC2)n(C)n1 (centres unmarked) [Example 124, 6-(8-((3-methoxy-1-methyl-1H-pyrazol-5-yl)sulfonyl)-8-azaspiro[4.5]decan-2-yl)-2-oxa-6-azaspiro[3.3]heptane]
< 100	O=S(=O)(c1cc(F)cc(F)c1)N1CCC2(CC1)C[C@H](N1CC3(COC3)C1)CO2 (single isomer, unassigned) [Example 119a]
< 100	O=S(=O)(c1ccc(F)cc1)N1CCC2(CCC(N3CC4(COC4)C3)C2)CC1 (centres unmarked) [Example 12]
< 100	Cc1nc(OC(F)F)ccc1S(=O)(=O)N1CCC2(CC1)CC(N1CC3(COC3)C1)C2 [Example 121, 6-(7-((6-(difluoromethoxy)-2-methylpyridin-3-yl)sulfonyl)-7-azaspiro[3.5]nonan-2-yl)-2-oxa-6-azaspiro[3.3]heptane]
< 100	O=S(=O)(c1ccc2c(c1)OCCO2)N1CCC2(CCC(N3CC4(COC4)C3)C2)CC1 (centres unmarked) [Example 107]
